Measured values as given in patent EP3875080B1, “DOSAGE FORM PROVIDING PROLONGED RELEASE OF […] SALT” (priority 2020, dated 2021).
Structures can show the parent of a compound that is named as a salt. Where two headings read alike, the source gives them in different places.

Legend:
[1] = thermodynamic solubility (saturation solubility); assay type: physicochemical; conditions: for solubility thermodynamic at 24 h: thermodynamic from solid, read-out: thermodynamic solubility, assay expressed as base
Protocol: The thermodynamic solubility of Tapentadol hydrochloride and of Tapentadol dihydrogen-phosphate (mixed form, batch with fine particles) was determined as saturation solubility in various media at various pH values. The solutions were stirred for 24 hours at 25 °C and the pH values of the solutions at the start and at the end of the experiments were measured. The dissolved amount of Tapentadol was quantified by HPLC (free base of Tapentadol).

[2] = in vitro dissolution of Tapentadol from tablets, paddle apparatus Ph. Eur.; assay type: physicochemical; conditions: for ethanol induced dose dumping: 0.1 N HCl (pH 1.0) containing 40 vol.-% ethanol compared to pH 1.0
Protocol: The in vitro dissolution of Tapentadol from the tablets (drug load 250 mg, C-1, I-1 and I-3) was measured in a paddle apparatus in accordance with Ph. Eur., equipped with sinker, at a rotational speed of 50 rpm at 37 °C in 900 ml of different dissolution media having different pH values. The experimental results are compiled in the table here below:
The in vitro dissolution of Tapentadol from the tablets (drug load 250 mg, I-4) was measured in a paddle apparatus in accordance with Ph. Eur., equipped with sinker, at a rotational speed of 50 rpm at 37 °C in 900 ml of 0.1 N HCl without ethanol (pH 1.0) and in 0.1 N HCl with 40 vol.-% ethanol (pH 1.0).

[3] = intrinsic dissolution (dissolution rate), Wood's apparatus; assay type: physicochemical
Protocol: 100 mg of Tapentadol, either in form of the hydrochloride salt or the dihydrogenphosphate salt (mixed form [batch with fine particles], pure hemihydrate or pure anhydrate) were compressed at a compressing force of 200 kg (gravitational) for 1 minute at a surface of 0.5 cm^2. The thus obtained compressed samples were investigated for their dissolution rate in a Wood's apparatus at 37 °C in 900 mL of dissolution medium at different pH values and a rotational speed of the paddle of 50 rpm.

[4] = in vivo, cited from earlier work

Molecule: Tapentadol dihydrogenphosphate
- pH end ([1]; 0.1 M HCl, pH start 1.11): 2.55
- thermodynamic solubility, assay expressed as base ([1]; 0.1 M HCl, pH start 1.11, 24 hours at 25 °C): 24.3 g/100 mL
- pH end ([1]; 0.15N NaOH, pH start 13.08): 8.09
- thermodynamic solubility, assay expressed as base ([1]; 0.15N NaOH, pH start 13.08, 24 hours at 25 °C): 6.5 g/100 mL
- pH end ([1]; SIF sp pH 6.8, pH start 6.82): 2.81
- thermodynamic solubility, assay expressed as base ([1]; SIF sp pH 6.8, pH start 6.82, 24 hours at 25 °C): 20.2 g/100 mL
- pH end ([1]; acetate pH 4.5, pH start 4.54): 2.81
- thermodynamic solubility, assay expressed as base ([1]; acetate pH 4.5, pH start 4.54, 24 hours at 25 °C): 21.2 g/100 mL
- pH end ([1]; citrate pH 6.8, pH start 6.83): 3.15
- thermodynamic solubility, assay expressed as base ([1]; citrate pH 6.8, pH start 6.83, 24 hours at 25 °C): 19.3 g/100 mL
- pH end ([1]; citrate pH 7.4, pH start 7.39): 3.16
- thermodynamic solubility, assay expressed as base ([1]; citrate pH 7.4, pH start 7.39, 24 hours at 25 °C): 19.0 g/100 mL
- thermodynamic solubility compared with Tapentadol hydrochloride ([1]; under all tested conditions): below that of Tapentadol hydrochloride
- pH end ([1]; water): 2.75
- thermodynamic solubility, assay expressed as base ([1]; water, 24 hours at 25 °C): 21.4 g/100 mL
- ethanol induced dose dumping [2]: no ethanol induced dose dumping
- additional retardant effect in aqueous ethanol compared to Tapentadol hydrochloride ([2]; 0.1 N HCl (pH 1.0) containing 40 vol.-% ethanol, same excipients in same amounts): significantly stronger
- time difference to a release of 70% compared to Tapentadol hydrochloride ([2]; pH 4.5, aqueous buffer without ethanol): more than one
- dissolution rate compared with Tapentadol hydrochloride ([3]; at all tested pH values): significantly slower dissolution rate
- intrinsic dissolution (dissolution rate) ([3]; pH 1.0, 0 min): 0%
- intrinsic dissolution (dissolution rate) ([3]; pH 1.0, 1 min): 14%
- intrinsic dissolution (dissolution rate) ([3]; pH 1.0, 3 min): 35%
- intrinsic dissolution (dissolution rate) ([3]; pH 1.0, 5 min): 56%
- intrinsic dissolution (dissolution rate) ([3]; pH 1.0, 7 min): 78%
- intrinsic dissolution (dissolution rate) ([3]; pH 1.0, 9 min): 84%
- intrinsic dissolution (dissolution rate) ([3]; pH 4.5, 0 min): 0%
- intrinsic dissolution (dissolution rate) ([3]; pH 4.5, 1 min): 12%
- intrinsic dissolution (dissolution rate) ([3]; pH 4.5, 3 min): 30%
- intrinsic dissolution (dissolution rate) ([3]; pH 4.5, 5 min): 49%
- intrinsic dissolution (dissolution rate) ([3]; pH 4.5, 7 min): 73%
- intrinsic dissolution (dissolution rate) ([3]; pH 4.5, 9 min): 86%
- intrinsic dissolution (dissolution rate) ([3]; pH 6.8, 0 min): 0%
- intrinsic dissolution (dissolution rate) ([3]; pH 6.8, 1 min): 11%
- intrinsic dissolution (dissolution rate) ([3]; pH 6.8, 3 min): 29%
- intrinsic dissolution (dissolution rate) ([3]; pH 6.8, 5 min): 48%
- intrinsic dissolution (dissolution rate) ([3]; pH 6.8, 7 min): 66%
- intrinsic dissolution (dissolution rate) ([3]; pH 6.8, 9 min): 77%
- intrinsic dissolution (dissolution rate) ([3]; pH 7.4, 0 min): 0%
- intrinsic dissolution (dissolution rate) ([3]; pH 7.4, 1 min): 12%
- intrinsic dissolution (dissolution rate) ([3]; pH 7.4, 3 min): 30%
- intrinsic dissolution (dissolution rate) ([3]; pH 7.4, 5 min): 46%
- intrinsic dissolution (dissolution rate) ([3]; pH 7.4, 7 min): 63%
- intrinsic dissolution (dissolution rate) ([3]; pH 7.4, 9 min): 78%

Molecule: CC[C@@H](c1cccc(O)c1)[C@@H](C)CN(C)C.O=P(O)(O)O [Tapentadol dihydrogenphosphate anhydrate]
- intrinsic dissolution (dissolution rate) ([3]; pH 1.2, 0 min): 0%
- intrinsic dissolution (dissolution rate) ([3]; pH 1.2, 1 min): 15%
- intrinsic dissolution (dissolution rate) ([3]; pH 1.2, 3 min): 37%
- intrinsic dissolution (dissolution rate) ([3]; pH 1.2, 5 min): 57%
- intrinsic dissolution (dissolution rate) ([3]; pH 1.2, 7 min): 75%
- intrinsic dissolution (dissolution rate) ([3]; pH 1.2, 9 min): 85%
- intrinsic dissolution (dissolution rate) ([3]; pH 6.8, 0 min): 0%
- intrinsic dissolution (dissolution rate) ([3]; pH 6.8, 1 min): 13%
- intrinsic dissolution (dissolution rate) ([3]; pH 6.8, 3 min): 36%
- intrinsic dissolution (dissolution rate) ([3]; pH 6.8, 5 min): 66%
- intrinsic dissolution (dissolution rate) ([3]; pH 6.8, 7 min): 90%
- intrinsic dissolution (dissolution rate) ([3]; pH 6.8, 9 min): 96%

Molecule: CN1CC[C@]23c4c5ccc(O)c4O[C@H]2C(=O)CC[C@@]3(O)[C@H]1C5 [Oxymorphone]
- Maximum individual Cmax ratio with 40% alcohol [4]: 2.70
- mean increase in Cmax ratio relative to drug co-ingested with 0% alcohol [4]: 1.70

Molecule: CC[C@@H](c1cccc(O)c1)[C@@H](C)CN(C)C [Tapentadol hydrochloride, reference compound]
- pH end ([1]; 0.1 M HCl, pH start 1.11): 0.83
- pH end ([1]; 0.15N NaOH, pH start 13.08): 8.21
- pH end ([1]; SIF sp pH 6.8, pH start 6.82): 6.23
- pH end ([1]; acetate pH 4.5, pH start 4.54): 4.29
- pH end ([1]; citrate pH 6.8, pH start 6.83): 6.17
- pH end ([1]; citrate pH 7.4, pH start 7.39): 6.33
- solubility thermodynamic at 24 h ([1]; pH 1.11, aqueous buffer, 0.1 M HCl, pH start 1.11, 24 hours at 25 °C): 312 mg/mL
- solubility thermodynamic at 24 h ([1]; pH 13.08, aqueous buffer, 0.15N NaOH, pH start 13.08, 24 hours at 25 °C): 66 mg/mL
- pH end ([1]; water): 4.63
- ethanol induced dose dumping [2]: no ethanol induced dose dumping
- intrinsic dissolution (dissolution rate) ([3]; pH 1.0, 0 min): 0%
- intrinsic dissolution (dissolution rate) ([3]; pH 1.0, 1 min): 52%
- intrinsic dissolution (dissolution rate) ([3]; pH 1.0, 3 min): 95%
- intrinsic dissolution (dissolution rate) ([3]; pH 1.0, 5 min): 99%
- intrinsic dissolution (dissolution rate) ([3]; pH 1.0, 7 min): 99%
- intrinsic dissolution (dissolution rate) ([3]; pH 1.0, 9 min): 99%
- intrinsic dissolution (dissolution rate) ([3]; pH 4.5, 0 min): 0%
- intrinsic dissolution (dissolution rate) ([3]; pH 4.5, 1 min): 60%
- intrinsic dissolution (dissolution rate) ([3]; pH 4.5, 3 min): 91%
- intrinsic dissolution (dissolution rate) ([3]; pH 4.5, 5 min): 95%
- intrinsic dissolution (dissolution rate) ([3]; pH 4.5, 7 min): 95%
- intrinsic dissolution (dissolution rate) ([3]; pH 4.5, 9 min): 96%
- intrinsic dissolution (dissolution rate) ([3]; pH 6.8, 0 min): 0%
- intrinsic dissolution (dissolution rate) ([3]; pH 6.8, 1 min): 38%
- intrinsic dissolution (dissolution rate) ([3]; pH 6.8, 3 min): 79%
- intrinsic dissolution (dissolution rate) ([3]; pH 6.8, 5 min): 92%
- intrinsic dissolution (dissolution rate) ([3]; pH 6.8, 7 min): 94%
- intrinsic dissolution (dissolution rate) ([3]; pH 6.8, 9 min): 94%
- intrinsic dissolution (dissolution rate) ([3]; pH 7.4, 0 min): 0%
- intrinsic dissolution (dissolution rate) ([3]; pH 7.4, 1 min): 27%
- intrinsic dissolution (dissolution rate) ([3]; pH 7.4, 3 min): 65%
- intrinsic dissolution (dissolution rate) ([3]; pH 7.4, 5 min): 80%
- intrinsic dissolution (dissolution rate) ([3]; pH 7.4, 7 min): 89%
- intrinsic dissolution (dissolution rate) ([3]; pH 7.4, 9 min): 92%

Molecule: COc1ccc2c3c1O[C@H]1C(=O)CC[C@H]4[C@@H](C2)N(C)CC[C@]314 [Hydrocodone]
- Maximum individual Cmax ratio with 40% alcohol [4]: 3.9
- mean increase in Cmax ratio relative to drug co-ingested with 0% alcohol [4]: 2.3

Molecule: CC[C@@H](c1cccc(O)c1)[C@@H](C)CN(C)C.CC[C@@H](c1cccc(O)c1)[C@@H](C)CN(C)C.O.O=P(O)(O)O.O=P(O)(O)O [Tapentadol dihydrogenphosphate hemihydrate]
- intrinsic dissolution (dissolution rate) ([3]; pH 1.2, 0 min): 0%
- intrinsic dissolution (dissolution rate) ([3]; pH 1.2, 1 min): 14%
- intrinsic dissolution (dissolution rate) ([3]; pH 1.2, 3 min): 37%
- intrinsic dissolution (dissolution rate) ([3]; pH 1.2, 5 min): 54%
- intrinsic dissolution (dissolution rate) ([3]; pH 1.2, 7 min): 72%
- intrinsic dissolution (dissolution rate) ([3]; pH 1.2, 9 min): 84%
- intrinsic dissolution (dissolution rate) ([3]; pH 6.8, 0 min): 0%
- intrinsic dissolution (dissolution rate) ([3]; pH 6.8, 1 min): 12%
- intrinsic dissolution (dissolution rate) ([3]; pH 6.8, 3 min): 36%
- intrinsic dissolution (dissolution rate) ([3]; pH 6.8, 5 min): 66%
- intrinsic dissolution (dissolution rate) ([3]; pH 6.8, 7 min): 80%
- intrinsic dissolution (dissolution rate) ([3]; pH 6.8, 9 min): 83%

Molecule: CC[C@@H](c1cccc(O)c1)[C@@H](C)CN(C)C [Tapentadol, (-)-(1R,2R)-3-(3-dimethylamino-1-ethyl-2-methyl-propyl)-phenol]
- Maximum individual Cmax ratio with 40% alcohol ([4]; 100 mg): 4.38
- mean increase in Cmax ratio relative to drug co-ingested with 0% alcohol ([4]; 100 mg): 1.48
- Maximum individual Cmax ratio with 40% alcohol ([4]; 250 mg): 2.67
- mean increase in Cmax ratio relative to drug co-ingested with 0% alcohol ([4]; 250 mg): 1.28
